Data on 1 molecule can be found in article PMC11375702, “Early Preclinical Studies of Ergosterol Peroxide and Biological Evaluation of Its Derivatives” (ACS Omega, 2024).

For data set [1], the system named is BJ. Kind of data set: CellTiter-Glo 72 h cytotoxicity assay, BJ normal fibroblasts. To be noted: Homo sapiens, CTG assay, noncancerous fibroblasts. The format is cell-based. As to the method: (§1) The following stable human cell lines were utilized for this study: SUM149 and MDA-MB-231 (breast cancer models) and BJ (human normal fibroblast, foreskin). Cells were purchased from BioIVT or the American Type Culture Collection (ATCC). Cells were cultured in F-12-Nutrient Mixture (SUM149), DMEM (MDA-MB-231), or EMEM (BJ) medium supplemented with 10% fetal bovine serum (Sigma-Aldrich, St. Louis, MO) and 2 mmol of L-glutamine, at 37 °C in a humidified 5% CO2 atmosphere (no antibiotics) as indicated by the manufacturer. Cell cultures were grown to 80–90% confluence before use, except where otherwise specified. Our cell lines are authenticated every 3 months using the CellCheck service (Idexx BioResearch, Westbrook, ME). Cells were tested for mycoplasma prior to use (MycoAlert detection Kit Lonza LT07–318) and discarded if they tested positive. A cell proliferation assay was performed using the CellTiter-Glo (Promega Corp., Madison, WI) luminescent cell viability assay kit. Cells were detached with trypsin, counted, and seeded in white polystyrene flat-bottom sterile 96-well tissue culture-treated plates (catalog no. 3917, Corning, Glendale, Arizona) and incubated overnight at 37 °C. MDA-MB231, SUM149, and BJ cells were seeded into 96-well plates at concentrations experimentally determined (0.4 × 10^4, 0.25 × 10^4, and 0.3 × 10^4 cells per well, respectively) to ensure logarithmic growth during the duration of the experiment and to prevent adverse effects on cell growth by DMSO exposure. The plates were incubated for 12 h before treatment. Stock solutions of test compounds (10 mM in DMSO) in nine 3-fold serial dilutions were dispensed. The final concentration of DMSO was 0.3% (v/v) in each well. The positive control used was staurosporine (10 μM) as the kill-all control, and the negative control used is DMSO as we have published. Staurosporine is a potent alkaloid inducer of various cell death modalities but primarily apoptosis, making it a reliable positive control for viability assays. The plates were incubated for 72 h and then quenched with CTG at 50 μL per well at RT. Plates were then incubated at RT for 20 min and centrifuged at 1000 rpm for 1 min. Luminescence was read on a CLARIOstar Plus plate reader (BMG LabTech, Ortenberg, Germany).
(§2) Three or four technical replicates were conducted for each experimental condition, and a minimum of three independent experiments were conducted for each assay. In vitro ADME values were expressed as mean ± standard deviation (SD) of at least three independent experiments. One-way analysis of variance (ANOVA) was adopted for comparisons among groups using the GraphPad Prism 10.2.3 (GraphPad Software, San Diego, CA). A difference of P < 0.05 was considered as statistically significant. Data are expressed as mean ± SEM. For CTG, the mean luminescence of each experimental treatment group was normalized as a percentage of the mean intensity of untreated controls (DMSO as vehicle). EC50 values were calculated from dose–response curve fitting via nonlinear regression using GraphPad Prism 10.2.3 (GraphPad Software, San Diego, CA). A therapeutic index (TI) between normal and tumor cell lines can be determined (EC50 non-neoplastic cell line BJ)/(EC50 cancer cell line). In vivo studies were analyzed using mixed-effects regression models to compare the changes in tumor volume over time by treatment group. Tumor volume reduction was compared using ANOVA with repeated measures, and all data was considered significant when P < 0.05.

The nature of data set [2]: in vitro. To be noted: human, plasma.
Data set [3] can be described thus: in vitro. To be noted: male, Balb/c, mouse, plasma.
Description: Briefly, pooled blood from 3 animals for experiment (male Balb/c 6–8w from the division of laboratory animal medicine in-house breeding colony) was collected, and the heparinized plasma was prepared. Plasma and test compounds were added to individual wells of a 96-well microtiter plate. Compounds were incubated at 37 °C for the provided time points. All tests were performed in triplicates. The test compound was incubated with plasma at six different time points. The reaction was terminated by methanol containing an internal standard. After centrifugation, the concentration of the test compound in the supernatant was quantified by LC-MS/MS.
Plasma stability assay: Briefly, pooled blood from 3 animals for experiment (male Balb/c 6-8w
from the division of laboratory animal medicine in-house breeding colony) was collected, and
the heparinized plasma was prepared. Plasma and test compounds were added to the individual
wells of a 96-well microtiter plate. Compounds were incubated at 37°C for the provided time
points. All tests were performed in triplicates. Then, the test compound was incubated with
plasma at six different time points. The reaction was terminated by the addition of methanol
containing an internal standard. After centrifugation, the concentration of the test compound in
the supernatant was quantified by LC-MS/MS. The percentage of test compound remaining at
compounds are known to be metabolized by plasma esterases,1 and were also incubated with
each batch of test compound.
A standard protocol and MS method was used for the plasma stability experiment. The extraction
procedure for plasma/tissue samples and the spiked plasma/tissue calibration standards were
identical: A 25 µL of study sample or spiked plasma/tissue calibration standard was added to
individual pre-labeled micro-centrifuge tubes followed by 100 µL of internal standard prepared
in Acetonitrile (Albendazole, 500 ng/mL) was added except for blank, where 100 µL of
Acetonitrile was added. Samples were vortexed for 5 minutes. Samples were centrifuged for 5
minutes at a speed of 4000 rpm at 4°C. Following centrifugation, 100 µL of clear supernatant
was transferred in 96 well plates and analyzed using LC-MS/MS mode. The LC system
comprises of a binary pump that can mix two mobile phases: A = Water+0.1% formic acid; B =
acetonitrile +0.1%formic acid. The system was operated in gradient mode using a 6 minute
min, 10-90% A to B in 5.5-6 min, and then hold at this gradient, using a Phenomenex Luna, 150
X 4.6 mm, 5 µm column. Source Parameter: positive, Ion Spray Voltage 5500, Temperature
550C, interface heater on.
The test system of data set [4] is MDA-MB-231. Kind of data set: CellTiter-Glo 72 h cytotoxicity assay, MDA-MB-231. The format is cell-based. The settings on record: Homo sapiens, CTG assay, read-out: MDA-MB231 (EC50). As to the method: as §1, §2
For orientation: In ATP-based viability assays light output follows the ATP content of the culture.

Data set [5] is described as follows: Metabolic stability in human liver microsomes. The format is in vitro ADME. (In general: Liver microsomes are vesicles of endoplasmic reticulum, rich in cytochrome P450 enzymes.)
Description: (§5) Human and/or mouse microsomal degradation was determined using multiple time points to monitor the rate of disappearance of the parent compound during incubation following the method described by Di et al.[51],[52] […] The metabolic stability was evaluated via the half-life from the least-squares fit of the multiple time points based on first-order kinetics. Waters ACQUITY-TOQ UPLC-MS-MS-UV system was used to analyze the samples as established in various MS core facilities.[51],[52]
The nature of data set [6]: Metabolic stability in mouse liver microsomes. In kind it is in vitro ADME.
Description: as §5
For data set [7], the system named is SUM149. The data set can be described thus: CellTiter-Glo 72 h cytotoxicity assay, SUM149. The format is cell-based. The settings on record: Homo sapiens.
Description: (§3) First, topological polar surface area (tPSA), a widely used molecular descriptor that provides insight into compound absorption and membrane penetration, was theoretically calculated for these compounds along with the estimated c log P (partition coefficient) or log P to further assess their global therapeutic potential.[18],[19] Lipophilicity, a measurable and predictable physical property, can provide practical guidance in designing compounds with improved molecular properties.[20] The tPSA sums the contribution of the surface area of polar atoms, enabling us to determine whether the compounds are more likely to be cell membrane permeable. The aqueous solubility was measured by ultraviolet/visible (UV/vis) spectroscopy.[21] […] EP shares an improved cLogP, but still relatively high from a desirable drug candidate (2.5–3.5). […] Compound 4 has a higher c log P, while compounds 5–10 have lower c log P values. To determine LiPE (lipophilicity efficiency), the following formula was used: LiPE = pIC50 – log P, according to established methods.[22],[23] […] The obtained EC50 values for the newly generated EP derivatives were within a similar range for other derivatives previously described against TNBC models.[17]
as §1
Three or four technical replicates were conducted for each experimental condition, and a minimum of three independent experiments were conducted for each assay. In vitro ADME values were expressed as mean ± standard deviation (SD) of at least three independent experiments. One-way analysis of variance (ANOVA) was adopted for comparisons among groups using the GraphPad Prism 10.2.3 (GraphPad Software, San Diego, CA). A difference of P < 0.05 was considered as statistically significant. […]

Data set [8] is described as follows: Plasma protein binding, rapid equilibrium dialysis (human). The format is in vitro ADME. As to the method:
(§4) This assay determines the plasma protein binding of a drug or compound and free drug concentration in plasma using rapid equilibrium dialysis. We use the Single-Use RED (rapid equilibrium dialysis, Thermo Scientific) devices to allow the aqueous component of plasma containing the free drug/compound through a dialysis membrane (MWCO ∼ 8000). Sample quantification is determined using a Waters ACQUITY-SOQ UPLC-MS-ELDS-UV system.

Data set [9] is described as follows: Aqueous solubility by UV/vis absorbance. In kind it is physicochemical. The settings on record: water, kinetic from dmso stock.
Description: as §3
Briefly, clear 96-well PS plates with lids (catalog no. 3903, Corning, Glendale, Arizona) were used for spectrophotometric determination of absorbance with a CLARIOstar Plus plate reader (BMG LabTech, Ortenberg, Germany) to determine at which concentration the compounds are precipitating out of solution. Decrease in transmittance of 2% or higher was considered significant. Compound solutions of 10 mM in DMSO were prepared followed by a serial dilution series, which were vortexed to ensure the solutions were homogeneous. The 96-well plate was then prepared with distilled H2O and allowed to equilibrate for 1.5 h. Then, the plate was placed in a CLARIOstar Plus plate reader or Cytation C10 (Biotek, Agilent) and set to detect absorbance at 220–700 nm. Each well was read individually. Three replicate assays were conducted for each experimental condition, and a minimum of three independent experiments were conducted.

The nature of data set [10]: Plasma protein binding, rapid equilibrium dialysis (mouse). The format is in vitro ADME. As for the experimental part:
as §4
(In equilibrium dialysis free small molecules cross a membrane that holds back macromolecules.)

Values after ≈ are worked out from the molar mass of the structure shown. Where only a bound is given, the exact number is not on record here.

The term EC50 denotes the concentration at which the effect is half-maximal. What is called IC50 is the concentration that gives 50% inhibition. In general, fraction unbound refers to the share of the substance not bound to proteins or other matrix. A lower fraction unbound goes with little free substance. By solubility is commonly meant the concentration that dissolves in the medium under given conditions. With `CC(C)[C@@H](C)/C=C/[C@@H](C)[C@H]1CC[C@@H]2[C@]1(C)CC[C@H]1[C@]23C=C[C@]2(C[C@@H](OC(=O)NS(=O)(=O)c4ccccc4)CC[C@]12C)OO3` [Compound 7], the concentration giving a half-maximal response (EC50) in data set [1] came to 47.1 µM; in [4], 12 µM; in data set [7] (SUM149, CTG assay, 72 h), 5.6 µM. Also, the half-life is more than 48 h in data set [2]; more than 48 h in [3]; 49.8 min in data set [5] (both sexes, pooled liver microsomes, read-out: metabolic stability (human) t1/2 (converted)); 54 min in data set [6] (female, CD-1, pooled liver microsomes, read-out: metabolic stability (mouse) t1/2 (converted)). Besides, the “metabolic stability (human) clint” value in [5] was found to be 24.91 mL/Min/K g. In addition, the “metabolic stability (mouse) clint” value in data set [6] is listed as 63.82 mL/Min/K g. In addition, in [7] (calculated from SUM149 EC50), the IC50 was 5.62 µM. In addition, the unbound share (fraction unbound) in data set [8] was 0.0062; in data set [10], 0.0017. In data set [9], this molecule had a solubility at […] of 26.8 µg/mL (≈ 43.7 µM).
